Data published in article PMC10298284, “Synthesis and hLDH Inhibitory Activity of Analogues to Natural Products with 2,8-Dioxabicyclo[3.3.1]nonane Scaffold” (International Journal of Molecular Sciences, 2023).
“And” between values parts separate entries of the source, which are not always exact repeats. Identical values can stand only once. Like-named read-outs stand apart in the source and are kept apart here.

How the values were obtained:
recombinant human LDHB = biological target: T1, recombinant human LDHB (Homo sapiens, UniProt P07195); assay: hLDHB enzymatic activity assay (same fluorimetric protocol); assay type: biochemical; details: mean ± SD of n = 3 replicates
T1 construct: purchased Abcam
Experimental: (§1) Briefly, the decrease in the coenzyme β-NADH fluorescence (λemission = 460 nm) was measured for 10 min, at different concentration of inhibitors, and its slope was compared with the one obtained when there were not inhibitors added (100% enzymatic activity).
The ability of the synthesized compounds to inhibit the hLDHB enzyme was measured using recombinant human LDHB (95%, specific activity >300 units/mg and concentration of 1.0 mg/mL, Abcam, Cambridge, UK) following the same fluorimetric protocol described in Section 3.4.

recombinant human LDHA = biological target: T2, recombinant human LDHA (Homo sapiens, UniProt P00338); assay: hLDHA enzymatic activity assay (kinetic spectrofluorimetric, β-NADH fluorescence decrease); assay type: biochemical; details: for IC50: mean ± SD of n = 3 replicates; for Selectivity Rate (IC50 hLDHB/hLDHA): ratio IC50 hLDHB / IC50 hLDHA
T2 construct: purchased Abcam
Experimental: as §1
The enzymatic assay was conducted on 96-well microplates and the decrease in the β-NADH fluorescence (λexcitation = 340 nm; λemission = 460 nm) was detected in a TECAN Infinite 200 Pro M Plex fluorescent plate reader (Tecan Instrument, Inc.) at 28 °C. The activity was determined according to our previously described protocol. The final volume in each well was set to 200 µL using 100 mM potassium phosphate buffer, 0.041 units/mL LDHA, 155 µM β-NADH, 1 mM pyruvate (saturated conditions), and DMSO solutions (5%, v/v) of pure compounds at concentrations in the range of 1–600 µM. The addition of pyruvate allowed the beginning of the reaction and fluorescence was registered every 60 s during 10 min. A lineal time interval was selected to calculate the slope at every single concentration. […] The slope obtained at each concentration was compared to the one obtained for the 100% enzymatic activity control to determine the corresponding enzymatic activity. A nonlinear regression analysis in GraphPad Prism version 9.00 for Windows (GraphPad Software, La Jolla, CA, USA) was used for dose response curve, fitting of logarithm of inhibitor concentration vs. normalized enzymatic activity, to calculate IC50 values (Supplementary Material section). All measurements were made in triplicate and data were expressed as the mean ± SD.

[1] = 1 mM pyruvate, 155 µM β-NADH, pH 7.3, 28 °C, read-out: hLDHA IC50
[2] = supplementary dose response curves, µM only on the axis label, read-out: IC50 (hLDHA inhibition curve)

T1 sequence (P07195 whole entry): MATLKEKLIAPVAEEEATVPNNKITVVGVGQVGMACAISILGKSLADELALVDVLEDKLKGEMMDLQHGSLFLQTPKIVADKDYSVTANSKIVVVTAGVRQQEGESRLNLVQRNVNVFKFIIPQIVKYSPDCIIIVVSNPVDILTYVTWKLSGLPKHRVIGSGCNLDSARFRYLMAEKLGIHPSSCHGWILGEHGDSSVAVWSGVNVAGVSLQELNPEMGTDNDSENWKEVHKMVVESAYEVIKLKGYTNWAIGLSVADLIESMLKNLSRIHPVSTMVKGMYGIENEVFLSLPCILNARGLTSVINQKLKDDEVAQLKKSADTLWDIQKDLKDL

Row | Compound | IC50 (recombinant human LDHB; read-out: hLDHB IC50) [µM] | melting point | IC50 (recombinant human LDHA; [1]) | Selectivity Rate (IC50 hLDHB/hLDHA) (recombinant human LDHA) | IC50 (recombinant human LDHA; [2]) [µM] | IC50 (recombinant human LDHB; supplementary dose response curves, µM only on the axis label, read-out: IC50 (hLDHB inhibition curve)) [µM] | Selectivity Rate (IC50 hLDHB/hLDHA) (recombinant human LDHA; listed as 70b)
1 | COc1ccc(C23CC(c4ccccc4O2)c2c(O)cc(O)cc2O3)cc1OC (racemic) [(±)-42, 2-(3′,4′-Dimethoxyphenyl)-chromane-(4→4″, 2→O-5″)-phloroglucinol] | 293.1 ± 2.4 | 77 to 80 °C (dec.) | 154 ± 11.3 µM | 1.9 | 154 ± 11.3 | – | –
2 | COc1ccc(C23CC(c4cc([N+](=O)[O-])ccc4O2)c2c(O)cc(O)cc2O3)cc1OC (racemic) [(±)-43, 2-(3′,4′-Dimethoxyphenyl)-6-nitrochromane-(4→4″, 2→O-5″)-phloroglucinol] | 65.3 ± 2.1 | 193 to 195 °C | < 10 µM and 8.2 µM | 8.0 | 8.2 ± 0.2 | – | –
3 | COc1ccc(C23CC(c4cc(Cl)ccc4O2)c2c(O)cc(O)cc2O3)cc1OC (racemic) [(±)-44, 2-(3′,4′-Dimethoxyphenyl)-6-chlorochromane-(4→4″, 2→O-5″)-phloroglucinol] | – | 257 to 259 °C | – | – | – | – | –
4 | O=c1oc2ccccc2c2c1C1CC(c3ccc(O)c(O)c3)(Oc3ccc([N+](=O)[O-])cc31)O2 (racemic) [(±)-46, 2-(3′,4′-Dihydroxyphenyl)-6-nitrochromane-(4→3″, 2→O-4″)-4″-hydroxycoumarin] | – | 128 to 130 °C (dec.) | – | – | – | – | –
5 | COc1ccc(C23CC(c4ccccc4O2)c2c(c4ccccc4oc2=O)O3)cc1OC (racemic) [(±)-48] | > 300 | – | 49.6 ± 1.7 µM | >6.0 | 49.6 ± 1.7 | – | –
6 | O=c1oc2ccccc2c2c1C1CC(c3ccc(O)cc3)(Oc3ccccc31)O2 (racemic) [(±)-51] | 31.5 ± 3 | – | 34.4 ± 0.8 µM | 0.9 | 34.4 ± 0.8 | – | –
7 | O=c1oc2ccccc2c2c1C1CC(c3ccc(O)cc3)(Oc3ccc([N+](=O)[O-])cc31)O2 (racemic) [(±)-52, 2-(4′-Hydroxyphenyl)-6-nitrochromane-(4→3″, 2→O-4″)-4″-hydroxycoumarin] | – | 275 to 278 °C | 36.9 ± 1.2 µM | 1.8 | 36.9 ± 1.2 | – | –
8 | O=c1oc2ccccc2c2c1C1CC(c3ccc(O)cc3)(Oc3ccc(Cl)cc31)O2 (racemic) [(±)-53, 2-(4′-Hydroxyphenyl)-6-chlorochromane-(4→3″, 2→O-4″)-4″-hydroxycoumarin] | – | 250 to 252 °C (dec.) | – | – | – | – | –
9 | O=C1C2=C(C(=O)c3ccccc31)C1CC(c3ccc(O)c(O)c3)(O2)Oc2ccccc21 (racemic) [(±)-54, 2-(3′,4′-Dihydroxyphenyl)-chromane-(4→3″, 2→O-2″)-2″-hydroxy-1″,4″-naphthoquinone] | – | 190 to 192 °C (dec.) | – | – | – | – | –
10 | O=C1C2=C(C(=O)c3ccccc31)C1CC(c3ccc(O)c(O)c3)(O2)Oc2ccc([N+](=O)[O-])cc21 (racemic) [(±)-55, 2-(3′.4′-Dihydroxyphenyl)-6-nitrochromane-(4→3″, 2→O-2″)-2″-hydroxy-1″,4″-naphthoquinone] | – | 247 to 250 °C | 27.4 ± 0.6 µM | 1.1 | 27.4 ± 0.6 | – | –
11 | COc1ccc(C23CC(C4=C(O2)C(=O)c2ccccc2C4=O)c2ccccc2O3)cc1OC (racemic) [(±)-57] | > 300 | – | 42.2 ± 2.4 µM | >7.1 | 42.2 ± 2.4 | – | –
12 | COc1ccc(C23CC(C4=C(O2)C(=O)c2ccccc2C4=O)c2cc([N+](=O)[O-])ccc2O3)cc1OC (racemic) [(±)-58, 2-(3′.4′-Dimethoxyphenyl)-6-nitrochromane-(4→3″, 2→O-2″)-2″-hydroxy-1″,4″-naphthoquinone] | – | 148 to 150 °C | – | – | – | – | –
13 | COc1ccc(C23CC(C4=C(O2)C(=O)c2ccccc2C4=O)c2cc(Cl)ccc2O3)cc1OC (racemic) [(±)-59, 2-(3′,4′-Dimethoxyphenyl)-6-chlorochromane-(4→3″, 2→O-2″)-2″-hydroxy-1″,4″-naphthoquinone] | – | 124 to 127 °C | – | – | – | – | –
14 | O=C1C2=C(C(=O)c3ccccc31)C1CC(c3ccc(O)cc3)(O2)Oc2ccc([N+](=O)[O-])cc21 (racemic) [(±)-60, 2-(4′-Hydroxyphenyl)-6-nitrochromane-(4→3″, 2→O-2″)-2″-hydroxy-1″,4″-naphthoquinone] | – | 270 to 273 °C (dec.) | – | – | – | – | –
15 | O=C1C2=C(C(=O)c3ccccc31)C1CC(c3ccc(O)cc3)(O2)Oc2ccc(Cl)cc21 (racemic) [(±)-61, 2-(4′-Hydroxyphenyl)-6-chlorochromane-(4→3″, 2→O-2″)-2″-hydroxy-1″,4″-naphthoquinone] | – | 249 to 251 °C | – | – | – | – | –
16 | COc1ccc([C@]23C[C@H](C4=C(C[C@@H](c5ccccc5)OC4=O)O2)c2ccccc2O3)cc1OC (racemic) [(±)-62a, 2-(3′,4′-Dimethoxyphenyl)-chromane-(4→3″, 2→O-4″)-4″-hydroxy-6″-phenyl-5″,6″-dihydro-2H-pyran-2″-one] | – | – | < 10 µM and 3.6 µM | 41.8 | 3.6 ± 0.3 | 150 ± 3.9 | –
17 | COc1ccc([C@]23C[C@H](C4=C(C[C@H](c5ccccc5)OC4=O)O2)c2ccccc2O3)cc1OC (racemic) [(±)-62b, 2-(3′,4′-Dimethoxyphenyl)-chromane-(4→3″, 2→O-4″)-4″-hydroxy-6″-phenyl-5″,6″-dihydro-2H-pyran-2″-one] | > 300 | – | 39.4 ± 1.2 µM | >7.6 | 39.4 ± 1.2 | – | –

Next, values leading:

Row | IC50 (recombinant human LDHB; read-out: hLDHB IC50) [µM] | melting point | IC50 (recombinant human LDHA; [1]) | Selectivity Rate (IC50 hLDHB/hLDHA) (recombinant human LDHA) | IC50 (recombinant human LDHA; [2]) [µM] | IC50 (recombinant human LDHB; supplementary dose response curves, µM only on the axis label, read-out: IC50 (hLDHB inhibition curve)) [µM] | Selectivity Rate (IC50 hLDHB/hLDHA) (recombinant human LDHA; listed as 70b) | Compound
18 | – | 110 to 112 °C | – | – | – | – | – | COc1ccc(C23CC(C4=C(CC(c5ccc(Cl)cc5)OC4=O)O2)c2ccccc2O3)cc1OC (racemic) [(±)-63a, 2-(3′,4′-Dimethoxyphenyl)-chromane-(4→3″, 2→O-4″)-6″-(4‴-chlorophenyl)-4″-hydroxy-5″,6″-dihydro-2H-pyran-2″-one]
19 | > 300 | – | 96.7 ± 9 µM | >3.1 | 96.7 ± 9 | – | – | COc1ccc(C2CC3=C(C(=O)O2)C2CC(c4ccc(OC)c(OC)c4)(O3)Oc3ccccc32)cc1 (racemic) [(±)-64b, 2-(3′,4′-Dimethoxyphenyl)-chromane-(4→3″, 2→O-4″)-4″-hydroxy-6″-(4‴-methoxyphenyl)-5″,6″-dihydro-2H-pyran-2″-one]
20 | > 300 | – | < 10 µM and 8.5 µM | >35.3 | 8.5 ± 0.4 | – | – | COc1ccc(C23CC(C4=C(CC(c5ccccc5)OC4=O)O2)c2cc([N+](=O)[O-])ccc2O3)cc1OC (racemic) [(±)-65b, 2-(3′,4′-Dimethoxyphenyl)-6-nitrochromane-(4→3″, 2→O-4″)-4″-hydroxy-6″-phenyl-5″,6″-dihydro-2H-pyran-2″-one]
21 | 20.4 ± 0.7 | – | < 10 µM and 6 µM | 3.4 | 6 ± 0.1 | – | – | COc1ccc(C23CC(C4=C(CC(c5ccc(Cl)cc5)OC4=O)O2)c2cc([N+](=O)[O-])ccc2O3)cc1OC (racemic) [(±)-66b, 2-(3′,4′-Dimethoxyphenyl)-6-nitrochromane-(4→3″, 2→O-4″)-6″-(4‴-chlorophenyl)-4″-hydroxy-5″,6″-dihydro-2H-pyran-2″-one]
22 | 53.7 ± 0.9 | – | 14.6 ± 0.3 µM | 3.7 | 14.6 ± 0.3 | – | – | COc1ccc(C2CC3=C(C(=O)O2)C2CC(c4ccc(OC)c(OC)c4)(O3)Oc3ccc([N+](=O)[O-])cc32)cc1 (racemic) [(±)-67b, 2-(3′,4′-Dimethoxyphenyl)-6-nitrochromane-(4→3″, 2→O-4″)-4″-hydroxy-6″-(4‴-methoxyphenyl)-5″,6″-dihydro-2H-pyran-2″-one]
23 | – | 106 to 108 °C | – | – | – | – | – | COc1ccc(C23CC(C4=C(CC(c5ccccc5)OC4=O)O2)c2cc(Cl)ccc2O3)cc1OC (racemic) [(±)-68a, 2-(3′,4′-Dimethoxyphenyl)-6-chlorochromane-(4→3″, 2→O-4″)-4″-hydroxy-6″-phenyl-5″,6″-dihydro-2H-pyran-2″-one]
24 | 77 ± 9.7 | – | 14.2 ± 0.8 µM | 5.4 | 14.2 ± 0.8 | – | – | COc1ccc(C23CC(C4=C(CC(c5ccc(Cl)cc5)OC4=O)O2)c2cc(Cl)ccc2O3)cc1OC (racemic) [(±)-69b, 2-(3′,4′-Dimethoxyphenyl)-6-chlorochromane-(4→3″, 2→O-4″)-6″-(4‴-chlorophenyl)-4″-hydroxy-5″,6″-dihydro-2H-pyran-2″-one]
25 | 292 ± 4.1 | – | 20.2 ± 0.7 µM | 14.5 | 20.2 ± 0.7 | – | > 10 | COc1ccc(C2CC3=C(C(=O)O2)C2CC(c4ccc(OC)c(OC)c4)(O3)Oc3ccc(Cl)cc32)cc1 (racemic) [(±)-70b, 2-(3′.4′-Dimethoxyphenyl)-6-chlorochromane-(4→3″, 2→O-4″)-4″-hydroxy-6″-(4‴-methoxyphenyl)-5″,6″-dihydro-2H-pyran-2″-one]
